In US20230018737A1, “AN IN VITRO KIT AND A METHOD FOR D[…] TRANSPLANTS AND/OR AUTOIMMUNE DISEASES AND/OR TUMOR DISEASES AND/OR VA[…] A MESSENGER-SUBSTANCE-CONTAINING SUPERNATANT, CELL-[…], AND A COMBINATION, FOR USE IN D[…] TRANSPLANTS AND/OR AUTOIMMUNE DISEASES AND/OR TUMOR DISEASES AND/OR VACCINATIONS” (HOT Screen GmbH, priority 2019, published 2023):
“And” between values parts separate entries of the source, which are not always exact repeats. Equal entries are not always repeated.

Columns and labels:
T cells = type: cell-based, human
whole blood cultures = type: cell-based, human

With tetanus toxoid [TeTo] the IL-2 (T cells) was 12.1 pg/mL, the “IL-2 Conc” value (T cells) was 12.1 pg/mL and the “IL-2 SI (stimulation index)” value (T cells) was 314. The IL-10 (whole blood cultures) was 8.47 pg/mL and 8.24 pg/mL.
